Assay results from patent publication US5618726A, “Biodegradable azo dyes” (priority 1994, dated 1997).
Values belong to the compound of their own block, whether it stands above or below them.

Columns and labels:
[1] = test system: P. chrysosporium ligninolytic culture; type: cell-based, Phanerochaete chrysosporium; settings: initial 200 mg-per-liter, ten days of growth
Description: Decolorization of dyes in cultures were monitored at their absorption maxima at pH 4.5, or using HPLC. A Spherisorb ODS2 C18 column was used for HPLC analysis with a sequence of DMS buffer at pH 4.5 and acetonitrile as solvents (5 min 100% DMS, 15 min 100% acetonitrile, 18 min 100% acetonitrile, 19 min 100% DMS, 20 min 100% DMS, 5 min postran 100% DMS). Peaks were monitored at 260 and 450 nm. Results from spectrophotometric and HPLC methods were compared.
The initial concentration of dye was 200 mg-per-liter. Numbers represent mg-per-liter of dye remaining in the cultures.

[2] = target: T1, horseradish peroxidase type II (Armoracia rusticana, UniProt P00433); test: Oxidation of azo dyes by horseradish peroxidase preparation; type: biochemical; settings: pH 8, 37° C., H2O2
T1 sequence (P00433 31-338): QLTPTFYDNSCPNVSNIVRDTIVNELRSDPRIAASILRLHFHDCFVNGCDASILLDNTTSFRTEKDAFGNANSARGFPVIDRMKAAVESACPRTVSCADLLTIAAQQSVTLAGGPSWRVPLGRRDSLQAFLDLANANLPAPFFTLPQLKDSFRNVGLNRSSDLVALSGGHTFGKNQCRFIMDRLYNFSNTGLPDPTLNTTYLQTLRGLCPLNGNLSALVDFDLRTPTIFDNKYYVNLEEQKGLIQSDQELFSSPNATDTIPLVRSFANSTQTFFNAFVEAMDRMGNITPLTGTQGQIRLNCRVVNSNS
Description: The reaction was started with the addition of 100 μl of 50 mM H2 O2 and was followed for 1 min at 37° C. Controls were run with no addition of H2 O2 or with the addition of the hemeperoxidase inhibitor KCN (final concentration 25 μM).

[3] = test system: S. chromofuscus A11 extracellular peroxidase; test: Oxidation of azo dyes by S. chromofuscus A11 crude enzyme preparation; type: biochemical, Streptomyces chromofuscus A11; settings: pH 8, 37° C., H2O2
Description: Environ. Microbiol., 1988, 54:3057-3063. […] Microbiol. Biotechnol., 34:661-667. Incubation took place at 37° C. with shaking at 250 rpm. The culture supernatant was collected after 48 h incubation, and vacuum-filtered through Whatman no. 1 filter paper. The filtrate was concentrated approximately 40- to 50-fold by ultrafiltration through an Amicon ultrafiltration stirred cell (series no. 8000, Amicon Corp.) with a disc PM-10 filter (diameter, 76 mm). Protein in the concentrated filtrate was then precipitated from solution with 80% ammonium sulfate. The precipitate was collected by centrifugation (15 min, 10,000 rpm). The pellet was resuspended in 10 ml of 20 mM HEPES buffer (pH 8) and dialyzed overnight against the same buffer at 4° C. These preparations were then stored in 1-ml aliquots at -20° C. until used. Before using, the preparation was filtered through a NAP-25 Sephadex G-25 disposable column (Pharmacia) in order to separate a yellowish protein fraction from a pink low-molecular-weight fraction. The yellowish fraction was used as the source of enzyme. […] The reaction was started with the addition of 100 μl of 50 mM H2 O2 and was followed for 1 min at 37° C. Controls were run with no addition of H2 O2 or with the addition of the hemeperoxidase inhibitor KCN (final concentration 25 μM).

[4] = test system: Mn(II)-peroxidase; test: Oxidation of dyes by P. chrysosporium Mn(II)-peroxidase; type: biochemical, Phanerochaete chrysosporium; settings: crude enzyme, conditions specific for Mn(II)-peroxidase
Description: (§1) The peroxidase assay was carried out using a composition having a final volume of 1.0 ml. The reaction mixture contained 250 μl of 100 mM HEPES buffer (pH 8), 500 μl of 10 mM 2,4-dichlorophenol, 100 μl of 1 mM aminoantipyrine, 50 μl enzyme preparation and 100 μl 50 mM H2 O2. The reaction was initiated by the addition of hydrogen peroxide at 37° C. One unit of peroxidase activity was expressed as the amount of enzyme required for an increase of one absorbance-unit-per-minute at 510 nm. Assays of manganese peroxidase and of ligninase from P. chrysosporium were carried out as previously described by Paszczynski et al in "Manganese peroxidase of Phanerochaete chrysosporium: Purification," Methods Enzymol. 161:264-270, incorporated herein by reference. […] Biophys., 1986, 44:750-765. Preparation and assay of ligninase and manganese peroxidase from these P. chrysosporium cultures were carried out as previously reported by Paszczynski, et al., Methods Enzymol., 1988, 161:264-270. […] Purification," Methods Enzymol. 161:264-270. […] Cycle time was 10 seconds, with the last measure after three minutes of incubation.

[5] = test system: ligninase; test: Oxidation of dyes by P. chrysosporium ligninase (crude preparation); type: biochemical, Phanerochaete chrysosporium; settings: crude enzyme, conditions specific for ligninase
Description: as §1, with “30 seconds” for “10 seconds,”, “15 minutes. […] The reaction conditions were the same as for acid yellow 9. No decolorization” for “three minutes”, “the synthesized dyes by ligninase was detected.” for “incubation.”

[6] = test system: Phanerochaete chrysosporium; test: Substrate removal / decolorization by P. chrysosporium culture; type: cell-based; settings: for % Decolorization, P. chrysosporium: 14 days
Description: Environ. Microbiol., 1981, 42:290-296), with the addition of 75 mg adenine (6-aminopurine) and 27 mg L-phenylalanine-per-liter. This addition accelerated the growth of the fungus without inhibiting ligninase activity. […] […] Cultures were incubated at 37° C. for 7 to 15 days with shaking (250 rpm). Solid agar media were also employed.

[7] = test system: P. chrysosporium; test: Mineralization of 14C-labeled dyes by shaken cultures; type: cell-based, Phanerochaete chrysosporium; settings: P. chrysosporium
Description: Agitated cultures containing 100,000 to 150,000 dpm of azo dye at a concentration of 200 mg/liter for P. chrysosporium and 50 mg/liter for S. chromofuscus were incubated at 37° C. for 20 days with shaking at 200 rpm. For each mineralization experiment six replicates-per-culture were run for P. chrysosporium and three replicates-per-culture for S. chromofuscus. Each culture flask contained a CO2 trap consisting of a small glass cup connected to the bottom of the rubber stopper. The cup contained 1 ml of 1N NaOH. Samples were taken every 2 days, and after each sampling cultures were flushed with 100% oxygen for 30 s. At the sampling time, the stopper was removed and the NaOH containing trapped CO2 was transferred to a 20-ml scintillation vial, and the cup was then rinsed twice with 1 ml of water. Two ml of rinse water were also transferred to the vial. Finally, 10 ml of Ecolite scintillation cocktail (ICN Biochemicals Inc., Irvine, Calif.) were added to each vial. Vials, after mixing, were stored in the dark for 24 h. The cpm of trapped radioactivity was then determined in a Packard Tri-Carb liquid scintillation analyzer, Model 1500, using the ^14 C quench standards and SIS numbers.
Either a charcoal-containing polyurethane sponge (Bio-Rad Laboratories, Richmond, Calif.) or 2-methoxyethanol was used to trap volatile organic compounds released during mineralization experiments. The sponge (1 cm^3) replaced the 1N NaOH solution in the small glass cap attached to the rubber stopper; other conditions were as before for the ^14 CO2 experiments. For scintillation counting, the charcoal sponges were dissolved in 1 ml of hyamine hydroxide contained in scintillation vials (1M solution in methanol; NEN Research Products, Boston, Mass.) held at 55° C. for 2 h. Ten ml of Ecolite scintillation cocktail were then added and the cpm was measured.
In the second procedure, cultures with CO2 traps were flushed with oxygen for 10 min, and the organic volatiles present were trapped in 10 ml of 2-methoxyethanol mixed with 10 ml Ecolite.
The removal of radioactivity from the media was determined by measuring the amount of ^14 C label in 0.1 ml of the medium at time 0 and 21 days for each culture. Uninoculated cultures were used as evaporation controls. […] At the end of each mineralization experiment, culture broths were acidified with 5 ml of 1M H3 PO4, fresh 1N NaOH was added to the trap, and the cultures were shaken overnight. No additional releases of ^14 CO2 were observed. The radioactivity assimilated by the cells was measured by solubilizing biomass harvested from each 21-day-old culture in an equal volume of hyamine hydroxide solution. Before solubilization, cells were washed three times with 50 ml of distilled water to remove adsorbed dyes. Ecolite 10 ml was added to the mixture, which was vortexed vigorously. To increase counting efficiency, the solution of biomass-hyamine-scintillation cocktail was further diluted 10 to 20 times with fresh Ecolite before counting.

[8] = beginning concentration 100 ppm
[9] = beginning concentration 150 ppm
[10] = beginning concentration 200 ppm
[11] = beginning concentration 300 ppm

SMILES: CCOc1ccc(N=Nc2ccc(C=Cc3ccc(N=Nc4ccc(OCC)cc4)cc3S(=O)(=O)O)c(S(=O)(=O)O)c2)cc1 [compound 27]
Dye remaining in the cultures, HPLC [1]: 29.42 mg-per-liter | Dye remaining in the cultures, Spectrophotometry [1]: 28.33 mg-per-liter

SMILES: O=S(=O)(O)c1ccc(N=Nc2c(O)ccc3ccccc23)c2ccccc12 [compound 23]
Dye remaining in the cultures, HPLC [1]: 72.43 mg-per-liter | Dye remaining in the cultures, Spectrophotometry [1]: 89.27 mg-per-liter

SMILES: COc1ccccc1NC(=O)C(N=Nc1ccc(-c2nc3ccc(C)c(S(=O)(=O)O)c3s2)cc1S(=O)(=O)O)=C(C)O [compound 29]
Dye remaining in the cultures, HPLC [1]: 109.39 mg-per-liter | Dye remaining in the cultures, Spectrophotometry [1]: 108.92 mg-per-liter

SMILES: COc1cc(-c2ccc(N=Nc3c(S(=O)(=O)O)cc4cc(S(=O)(=O)O)cc(N)c4c3O)c(OC)c2)ccc1N=Nc1c(S(=O)(=O)O)cc2cc(S(=O)(=O)O)cc(N)c2c1O [compound 22]
Dye remaining in the cultures, HPLC [1]: 12.28 mg-per-liter | Dye remaining in the cultures, Spectrophotometry [1]: 7.64 mg-per-liter

SMILES: Nc1ccc2c(O)c(N=Nc3ccc(N=Nc4ccc(N=Nc5cc(S(=O)(=O)O)c6cccc(S(=O)(=O)O)c6c5)c5ccccc45)c4ccc(S(=O)(=O)O)cc34)c(S(=O)(=O)O)cc2c1 [compound 25]
Dye remaining in the cultures, HPLC [1]: 14.86 mg-per-liter | Dye remaining in the cultures, Spectrophotometry [1]: 9.66 mg-per-liter

SMILES: Nc1c(N=Nc2ccc(-c3ccc(N=Nc4cc(S(=O)(=O)O)c5ccccc5c4N)cc3)cc2)cc(S(=O)(=O)O)c2ccccc12 [compound 20]
Dye remaining in the cultures, HPLC [1]: 62.20 mg-per-liter | Dye remaining in the cultures, Spectrophotometry [1]: 52.01 mg-per-liter

SMILES: Nc1ccc2cc(S(=O)(=O)O)cc(O)c2c1N=Nc1ccc(NC(=O)Nc2ccc(N=Nc3c(N)ccc4cc(S(=O)(=O)O)cc(O)c34)c(S(=O)(=O)O)c2)cc1S(=O)(=O)O [compound 26]
Dye remaining in the cultures, HPLC [1]: 6.98 mg-per-liter | Dye remaining in the cultures, Spectrophotometry [1]: 4.33 mg-per-liter

Oxidation rate of azo dyes, Horseradish peroxidase [2]: 0.12 μmoles per minute per ml | Oxidation rate of azo dyes, S. chromofuscus peroxidase [3]: 0.15 μmoles per minute per ml | Oxidation rate of azo dyes, P. chrysosporium Mn-peroxidase [4]: 0.09 μmoles per minute per ml | Oxidation rate of azo dyes, P. chrysosporium Ligninase [5]: 1.38 μmoles per minute per ml
SMILES: Nc1ccc(N=Nc2ccc(S(=O)(=O)O)cc2)cc1S(=O)(=O)O [compound 18]
Concentration of substrate after ten days cultivation with P. chrysosporium [6, 8]: 8.387 ppm | Concentration of substrate after ten days cultivation with P. chrysosporium [6, 9]: 20.342 ppm | Concentration of substrate after ten days cultivation with P. chrysosporium [6, 10]: 40.875 ppm | Concentration of substrate after ten days cultivation with P. chrysosporium [6, 11]: 77.099 ppm

Oxidation rate of azo dyes, Horseradish peroxidase [2]: 0.20 μmoles per minute per ml | Oxidation rate of azo dyes, S. chromofuscus peroxidase [3]: 0.35 μmoles per minute per ml | Oxidation rate of azo dyes, P. chrysosporium Mn-peroxidase [4]: 0.07 μmoles per minute per ml | Oxidation rate of azo dyes, P. chrysosporium Ligninase [5]: 1.27 μmoles per minute per ml | % Decolorization, P. chrysosporium ([6]; initial concn 150 ppm): 89% | % Decolorization, P. chrysosporium ([6]; initial concn 300 ppm): 86%
SMILES: CCc1ccc(O)c(N=Nc2ccc(S(=O)(=O)O)cc2)c1 [compound 9]
Concentration of substrate after ten days cultivation with P. chrysosporium [6, 8]: 81.911 ppm | Concentration of substrate after ten days cultivation with P. chrysosporium [6, 9]: 109.822 ppm | Concentration of substrate after ten days cultivation with P. chrysosporium [6, 10]: 32.044 ppm | Concentration of substrate after ten days cultivation with P. chrysosporium [6, 11]: 153.733 ppm

SMILES: Cc1ccc(S(=O)(=O)Oc2ccc(N=Nc3ccc(-c4ccc(N=Nc5c(O)ccc6cc(S(=O)(=O)O)cc(S(=O)(=O)O)c56)c(C)c4)cc3C)cc2)cc1 [compound 21]
Dye remaining in the cultures, HPLC [1]: 103.62 mg-per-liter | Dye remaining in the cultures, Spectrophotometry [1]: 102.38 mg-per-liter

SMILES: O=S(=O)(O)[14c]1[14cH][14cH][14c](N=Nc2c(O)ccc3ccccc23)[14cH][14cH]1 [compound 36]
Degradation began earlier than dye 37 [7]: 2 days | Degradation relative to dye 37 ([7]; 21-day incubation): 2.5 times
